{"source": "ChEMBL document CHEMBL3244165", "about": "“Improved synthesis and in vitro antiviral activities of 5-cyanouridine and 5-cyano-2'-deoxyuridine” (J Med Chem, 1977)", "data": [{"tested_on": "Vaccinia virus", "assay": "Antiviral activity against Vaccinia virus infected in human skin fibroblasts assessed as inhibition of virus-induced cytopathogenicity", "type": "functional, Orthopoxvirus vaccinia", "values": [{"smiles": "N#Cc1cn([C@@H]2O[C@H](CO)[C@@H](O)[C@H]2O)c(=O)[nH]c1=O", "ID50": ">7 ×10⁻⁴ M"}, {"smiles": "N#Cc1cn([C@H]2C[C@H](O)[C@@H](CO)O2)c(=O)[nH]c1=O", "ID50": "2.7 ×10⁻⁵ M"}, {"smiles": "O=c1[nH]c(=O)n([C@H]2C[C@H](O)[C@@H](CO)O2)cc1Br", "note": "[BROXURIDINE]", "ID50": "6.5 ×10⁻⁷ M"}, {"smiles": "O=c1[nH]c(=O)n([C@H]2C[C@H](O)[C@@H](CO)O2)cc1Cl", "note": "[CHLORODEOXYURIDINE]", "ID50": "1.5 ×10⁻⁶ M"}, {"smiles": "O=c1[nH]c(=O)n([C@H]2C[C@H](O)[C@@H](CO)O2)cc1F", "note": "[FLOXURIDINE]", "ID50": "4 ×10⁻⁷ M"}, {"smiles": "O=c1[nH]c(=O)n([C@H]2C[C@H](O)[C@@H](CO)O2)cc1I", "note": "[IDOXURIDINE]", "ID50": "1.1 ×10⁻⁶ M"}, {"smiles": "O=c1[nH]c(=O)n([C@H]2C[C@H](O)[C@@H](CO)O2)cc1C(F)(F)F", "note": "[TRIFLURIDINE]", "ID50": "1.3 ×10⁻⁶ M"}, {"smiles": "Nc1ncnc2c1ncn2[C@@H]1O[C@H](CO)[C@@H](O)[C@@H]1O", "note": "[VIDARABINE]", "ID50": "2.6 ×10⁻⁵ M"}]}]}
